Measured values published in PubChem BioAssay AID248 (DTP/NCI, 2004).
“And” between values parts separate entries of the source, which are not always exact repeats. Identical values can stand only once. Inconclusive results and toxic doses are left out.

Tested on: L1210 leukemia ip in BDF1 mice, survival T/C
Assay: NCI In Vivo Anticancer Drug Screen. Data for tumor model L1210 Leukemia (intraperitoneal) in B6D2F1 (BDF1) mice
Conditions: endpoint: mean survival time, higher = longer survival
Procedure, shortened: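 Each compound was tested against a transplantable tumor grown in mice. The endpoint was survival, with treated animals benchmarked against vehicle controls as a simple ratio.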

[1] = dose: 100.0 mg/kg/injection, schedule: Q04DX003 (ip), vehicle: Klucel (hydroxypropylcellulose) (HPC)
[2] = dose: 200.0 mg/kg/injection, schedule: Q04DX003 (ip), vehicle: Klucel (hydroxypropylcellulose) (HPC)
[3] = dose: 50.0 mg/kg/injection, schedule: Q01DX009 (ip), vehicle: Klucel (hydroxypropylcellulose) (HPC)
[4] = dose: 100.0 mg/kg/injection, schedule: Q01DX009 (ip), vehicle: Klucel (hydroxypropylcellulose) (HPC)
[5] = dose: 100.0 mg/kg/injection, schedule: Q04DX003 (ip), vehicle: saline with Tween-80
[6] = dose: 50.0 mg/kg/injection, schedule: Q01DX001 (ip), vehicle: saline
[7] = dose: 100.0 mg/kg/injection, schedule: Q01DX001 (ip), vehicle: saline
[8] = dose: 200.0 mg/kg/injection, schedule: Q01DX001 (ip), vehicle: saline
[9] = dose: 400.0 mg/kg/injection, schedule: Q01DX001 (ip), vehicle: saline
[10] = dose: 50.0 mg/kg/injection, schedule: Q01DX009 (ip), vehicle: saline with Tween-80
[11] = dose: 100.0 mg/kg/injection, schedule: Q01DX009 (ip), vehicle: saline with Tween-80

CCCCCCC(=O)N(CCCCC)CCCCC
T/C (dose: 100.0 mg/kg/injection, schedule: Q01DX001 (ip), vehicle: carboxymethylcellulose (CMC)): 98 % of control
T/C (dose: 100.0 mg/kg/injection, schedule: Q01DX009 (ip), vehicle: carboxymethylcellulose (CMC)): 96 % of control and 97 % of control
T/C (dose: 100.0 mg/kg/injection, schedule: Q04DX002 (ip), vehicle: carboxymethylcellulose (CMC)): 100 % of control and 102 % of control
T/C (dose: 100.0 mg/kg/injection, schedule: Q04DX003 (ip), vehicle: carboxymethylcellulose (CMC)): 93 % of control
T/C (dose: 200.0 mg/kg/injection, schedule: Q01DX001 (ip), vehicle: carboxymethylcellulose (CMC)): 94 % of control
T/C (dose: 200.0 mg/kg/injection, schedule: Q01DX009 (ip), vehicle: carboxymethylcellulose (CMC)): 96 % of control and 105 % of control
T/C (dose: 200.0 mg/kg/injection, schedule: Q04DX002 (ip), vehicle: carboxymethylcellulose (CMC)): 98 % of control and 100 % of control
T/C (dose: 200.0 mg/kg/injection, schedule: Q04DX003 (ip), vehicle: carboxymethylcellulose (CMC)): 95 % of control
T/C (dose: 400.0 mg/kg/injection, schedule: Q01DX001 (ip), vehicle: carboxymethylcellulose (CMC)): 104 % of control
T/C (dose: 400.0 mg/kg/injection, schedule: Q04DX002 (ip), vehicle: carboxymethylcellulose (CMC)): 98 % of control and 103 % of control
T/C (dose: 400.0 mg/kg/injection, schedule: Q04DX003 (ip), vehicle: carboxymethylcellulose (CMC)): 97 % of control

CCCCCCCCCCCCNC(=S)NCCCCCCCCCCCC
T/C [1]: 92 % of control
T/C [2]: 92 % of control
T/C (dose: 400.0 mg/kg/injection, schedule: Q04DX003 (ip), vehicle: Klucel (hydroxypropylcellulose) (HPC)): 89 % of control

COc1ccccc1C1N(C)CCCN1C
T/C (dose: 6.25 mg/kg/injection, schedule: Q04DX003 (ip), vehicle: saline): 96 % of control
T/C (dose: 12.5 mg/kg/injection, schedule: Q04DX003 (ip), vehicle: saline): 92 % of control
T/C (dose: 25.0 mg/kg/injection, schedule: Q04DX003 (ip), vehicle: saline): 101 % of control

Nc1nc(=S)[nH]c(C(=O)O)c1Oc1ccccc1
T/C [3]: 87 % of control
T/C (dose: 50.0 mg/kg/injection, schedule: Q04DX003 (ip), vehicle: Klucel (hydroxypropylcellulose) (HPC)): 86 % of control
T/C (dose: 100.0 mg/kg/injection, schedule: Q01DX001 (ip), vehicle: Klucel (hydroxypropylcellulose) (HPC)): 92 % of control
T/C [4]: 102 % of control
T/C [1]: 89 % of control
T/C (dose: 200.0 mg/kg/injection, schedule: Q01DX001 (ip), vehicle: Klucel (hydroxypropylcellulose) (HPC)): 94 % of control
T/C (dose: 200.0 mg/kg/injection, schedule: Q01DX009 (ip), vehicle: Klucel (hydroxypropylcellulose) (HPC)): 95 % of control
T/C [2]: 87 % of control

O=C1OCCC1n1ccc(=O)[nH]c1=O (stereo not given)
T/C (dose: 100.0 mg/kg/injection, schedule: Q01DX009 (ip), vehicle: saline): 111 % of control
T/C (dose: 200.0 mg/kg/injection, schedule: Q01DX009 (ip), vehicle: saline): 105 % of control
T/C (dose: 400.0 mg/kg/injection, schedule: Q01DX009 (ip), vehicle: saline): 106 % of control

CCCCCCCCCN1C(=O)c2ccccc2S1(=O)=O
T/C (dose: 222.0 mg/kg/injection, schedule: Q01DX Z (ip), vehicle: saline): 100 % of control
T/C (dose: 333.0 mg/kg/injection, schedule: Q01DX Z (ip), vehicle: saline): 97 % of control
T/C (dose: 500.0 mg/kg/injection, schedule: Q01DX Z (ip), vehicle: saline): 91 % of control

O=c1[nH]c2nccnc2[nH]1
T/C (dose: 25.0 mg/kg/injection, schedule: Q01DX009 (ip), vehicle: water): 91 % of control
T/C (dose: 50.0 mg/kg/injection, schedule: Q01DX009 (ip), vehicle: water): 107 % of control
T/C (dose: 200.0 mg/kg/injection, schedule: Q01DX009 (ip), vehicle: water): 96 % of control

Nc1ncnc2c1nnn2CCCCCC(=O)O
T/C [5]: 100 % of control
T/C (dose: 200.0 mg/kg/injection, schedule: Q04DX003 (ip), vehicle: saline with Tween-80): 101 % of control
T/C (dose: 400.0 mg/kg/injection, schedule: Q04DX003 (ip), vehicle: saline with Tween-80): 97 % of control

O=C(CCCC(=O)NNC(=O)Nc1ccc(Cl)cc1)NNC(=O)Nc1ccc(Cl)cc1
T/C [6]: 93 % of control
T/C [7]: 96 % of control
T/C [8]: 100 % of control
T/C [9]: 100 % of control

O=C(Nc1ccccc1C(F)(F)F)c1ccccc1Cl
T/C (dose: 100.0 mg/kg/injection, schedule: Q01DX009 (ip), vehicle: acetone): 98 % of control
T/C (dose: 200.0 mg/kg/injection, schedule: Q01DX009 (ip), vehicle: acetone): 93 % of control
T/C (dose: 400.0 mg/kg/injection, schedule: Q01DX009 (ip), vehicle: acetone): 93 % of control

COc1ccc(/C=N/NC(=O)CNC(=O)Nc2cccc(Cl)c2Cl)cc1
T/C [10]: 93 % of control
T/C [11]: 96 % of control

CCOC(=O)CCC(NC(=O)c1cnc(N)s1)C(=O)OCC (stereo not given)
T/C (dose: 44.0 mg/kg/injection, schedule: Q01DX001 (ip), vehicle: saline with Tween-80): 97 % of control
T/C (dose: 66.0 mg/kg/injection, schedule: Q01DX001 (ip), vehicle: saline with Tween-80): 97 % of control
T/C (dose: 100.0 mg/kg/injection, schedule: Q01DX001 (ip), vehicle: saline with Tween-80): 97 % of control
T/C (dose: 150.0 mg/kg/injection, schedule: Q01DX001 (ip), vehicle: saline with Tween-80): 101 % of control
T/C (dose: 200.0 mg/kg/injection, schedule: Q01DX001 (ip), vehicle: saline with Tween-80): 93 % of control
T/C (dose: 400.0 mg/kg/injection, schedule: Q01DX001 (ip), vehicle: saline with Tween-80): 102 % of control

CC(CCC(=O)O)C1CCC2C3CCC4CC(OC=O)CCC4(C)C3CC(OC=O)C12C (stereo not given)
T/C [10]: 101 % of control
T/C [11]: 92 % of control
T/C [5]: 96 % of control
T/C (dose: 200.0 mg/kg/injection, schedule: Q01DX009 (ip), vehicle: saline with Tween-80): 105 % of control

NNC(=O)Nc1cccnc1
T/C (dose: 75.0 mg/kg/injection, schedule: Q01DX009 (ip), vehicle: saline): 106 % of control

COC(=O)C1CN(S(=O)(=O)c2ccccc2)c2ccccc2N1S(=O)(=O)c1ccccc1 (stereo not given)
T/C (dose: 100.0 mg/kg/injection, schedule: Q04DX003 (ip), vehicle: acetone): 95 % of control
T/C (dose: 200.0 mg/kg/injection, schedule: Q04DX003 (ip), vehicle: acetone): 100 % of control
T/C (dose: 400.0 mg/kg/injection, schedule: Q04DX003 (ip), vehicle: acetone): 94 % of control

CCCCOc1ccc(/C=N/NC(=O)Nc2ccccc2)cc1
T/C (dose: 25.0 mg/kg/injection, schedule: Q01DX009 (ip), vehicle: Klucel (hydroxypropylcellulose) (HPC)): 95 % of control
T/C [3]: 97 % of control
T/C [4]: 88 % of control and 90 % of control
T/C (dose: 400.0 mg/kg/injection, schedule: Q01DX009 (ip), vehicle: Klucel (hydroxypropylcellulose) (HPC)): 87 % of control

C(/CCC/C=N/Nc1ccccc1)=N\Nc1ccccc1
T/C [6]: 103 % of control
T/C [7]: 100 % of control
T/C [8]: 109 % of control
T/C [9]: 100 % of control

OC1CC=CC=CC1
T/C (dose: 75.0 mg/kg/injection, schedule: Q01DX001 (ip), vehicle: saline): 94 % of control
T/C (dose: 150.0 mg/kg/injection, schedule: Q01DX001 (ip), vehicle: saline): 97 % of control

CC1CCC(NC(=O)N(CCF)N=O)CC1 (stereo not given)
T/C (dose: 8.0 mg/kg/injection, schedule: Q01DX001 (ip), vehicle: other): 115 % of control
T/C (dose: 26.0 mg/kg/injection, schedule: Q01DX001 (ip), vehicle: other): 433 % of control
T/C (dose: 40.0 mg/kg/injection, schedule: Q01DX001 (ip), vehicle: other): 500 % of control
T/C (dose: 60.0 mg/kg/injection, schedule: Q01DX001 (ip), vehicle: other): 437 % of control

Cc1ccc(/C=C2\CCC3C(=O)CCCC3C2=O)cc1 (stereo not given)
T/C [7]: 107 % of control
T/C [8]: 89 % of control

CC1CC[N-]CC1.CC1CC[N-]CC1.[Br][Pt+2]([Br])([Br])[Br]
T/C (dose: 6.25 mg/kg/injection, schedule: Q01DX009 (ip), vehicle: saline with Tween-80): 108 % of control
T/C (dose: 12.5 mg/kg/injection, schedule: Q01DX009 (ip), vehicle: saline with Tween-80): 113 % of control
T/C (dose: 12.5 mg/kg/injection, schedule: Q04DX003 (ip), vehicle: saline with Tween-80): 104 % of control
T/C (dose: 25.0 mg/kg/injection, schedule: Q04DX003 (ip), vehicle: saline with Tween-80): 105 % of control
